In patent publication US10858384B2, “Synthetic molecule constructs” (KODE BIOTECH LIMITED, priority 2004, dated 2020):

Assays:
[1] = Solubility of synthetic glycolipids in hot PBS; type: physicochemical; conditions: hot PBS
Description: In the context of this description the phrase “water soluble” means a stable, single phase system is formed when the synthetic molecule construct is contacted with water or saline (such as PBS) in the absence of organic solvents or detergents, and the term “solution” has a corresponding meaning.
For use in the transformation of cells the first criterion that synthetic glycolipids must satisfy is that they are soluble in aqueous solvents, e.g. phosphate buffered saline.
Initial tests on the molecules were to establish solubility and thus eliminate those molecules that were unsuitable for use in the transformation of cells.

[2] = system: RBCs; assay: Insertion efficiency: post-transformation solutions concentrated 20x, Diamed serology; type: cell-based; conditions: post-transformation solution concentrated 20×, from 0.08 mg/mL
Method: In addition, the post-transformation solutions were concentrated 20× and compared in parallel with the transformation solutions of known concentration. Only the post-transformation solutions derived from the 0.08 mg/mL Atri-sp-Ad-DOPE (I) and 0.6 mg/mL Btri-sp-Ad-DOPE (VI) solutions were tested.
Post-transformation solutions (20 μL) were dialysed (pore size 500 Da) against de-ionised water for 2 days. The samples were left to dry in a fumehood for 10 days. At the end of this time they were transferred into a rotavapor flask and set on the rotavapor to rotate under vacuum with no heat overnight. Samples were dried in a water bath at 40° C. and washed over into smaller vessels with chloroform-methanol 2:1 leaving significant amounts of dried cellular material. The chloroform-methanol 2:1 washings were dried down, washed over again into test-tubes with chloroform-methanol 2:1 and dried down. These samples were redissolved in 1 mL of 1× PBS and used for transformation experiments. The cellular material in the bottom of the flasks was washed out with water into another set of tubes.
The post-transformation solutions (from Atri-sp-Ad-DOPE (I) at 0.08 mg/mL and Btri-sp-Ad-DOPE (VI) at 0.6 mg/mL, 20 μL) were added to washed, packed RBCs (60 μL). […]

[3] = system: endometrial cells and embryos; assay: Attachment of transformed endometrial cells to modified embryos; type: cell-based; conditions: 15 minutes at 37° C.
Method: Modified embryos (BioG-Avidin-BioIgG^B and BioG-Avidin-BioIgM^A) were prepared in accordance with the methods described in the specification accompanying the international application no. PCT/NZ03/00059 (published as WO03/087346).
Two concave glass slides were prepared, one with two wells of synthetic glycolipid Atri-sp-Ad-DOPE (I) inserted endometrial cells and the other with two wells of synthetic glycolipid Btri-sp-Ad-DOPE (VI) inserted endometrial cells.
The embryos were surrounded with endometrial cells. The wells were covered with mineral oil and incubated for 15 minutes at 37° C. Using a wide bore handling pipette each group of embryos were carefully transferred to a fresh drop of M2 media. The embryos were gently washed. The embryos were gently transferred into 2 μL of M2 media on a marked microscope slide. Each drop was overlaid with mineral oil
Under a central plane of focus on an Olympus microscope the number of endometrial cells adhered to the embryos in each group was assessed. The number of cells adhered to each embryo was recorded.

[4] = system: group O red blood cells (RBCs); assay: Diamed gel-card agglutination of group O RBCs transformed at 37° C. with synthetic glycolipids; type: cell-based, human; parameters: scale not given here; conditions: for Agglutination, Diamed gel-cards, Albaclone anti-A / Agglutination, Diamed gel-cards, Bioclone anti-A: 0.025 mg/mL
Method: Washed packed group O red blood cells (RBCs) (3 parts by volume) and the synthetic glycolipid solution (1 part by volume, varying concentrations) were added to an eppendorf tube. The tube was incubated in a 37° C. waterbath for one hour, mixing every 15 minutes. […]
Tube serology and Diamed gel-card results for RBCs transformed with the different synthetic molecule constructs are provided in Table 38. Results for the stability of the RBCs transformed with the different synthetic glycolipids at different concentrations are provided in Tables 39 to 44.

Compound: CCCCCCCC/C=C\CCCCCCCC(=O)OC[C@H](COP(=O)(O)OCCNC(=O)CCCCC(=O)NCCCO[C@@H]1O[C@H](CO)[C@H](O)[C@H](O[C@H]2O[C@H](CO)[C@H](O)[C@H](O)[C@H]2NC(C)=O)[C@H]1O[C@@H]1O[C@@H](C)[C@@H](O)[C@@H](O)[C@@H]1O)OC(=O)CCCCCCC/C=C\CCCCCCCC [Atri-sp-Ad-DOPE (I)]
- Water solubility [1]: Yes
- Score (Diamed serology) [2]: 0
- Average number of endometrial cells attached to modified embryos ([3]; embryos modified with BioG-Avidin-BioIgG^B): 2.3
- Average number of endometrial cells attached to modified embryos ([3]; embryos modified with BioG-Avidin-BioIgM^A): 7.25
- Albaclone anti-A, Diamed ([4]; 0.01 mg/mL): 0
- Bioclone anti-A, Diamed ([4]; 0.01 mg/mL): 0
- Agglutination, Diamed gel-cards, Albaclone anti-A ([4]; Day 2, Alsevers): 0
- Agglutination, Diamed gel-cards, Albaclone anti-A ([4]; Day 2, Cellstab): 0
- Agglutination, Diamed gel-cards, Albaclone anti-A ([4]; Day 8, Alsevers): 0
- Agglutination, Diamed gel-cards, Albaclone anti-A ([4]; Day 8, Cellstab): 0
- Agglutination, Diamed gel-cards, Albaclone anti-A ([4]; Day 15, Alsevers): 0
- Agglutination, Diamed gel-cards, Albaclone anti-A ([4]; Day 15, Cellstab): 0
- Agglutination, Diamed gel-cards, Albaclone anti-A ([4]; Day 22, Alsevers): 0
- Agglutination, Diamed gel-cards, Bioclone anti-A ([4]; Day 22, Alsevers): w+
- Agglutination, Diamed gel-cards, Albaclone anti-A ([4]; Day 22, Cellstab): 0
- Agglutination, Diamed gel-cards, Albaclone anti-A ([4]; Day 29, Alsevers): 0
- Agglutination, Diamed gel-cards, Bioclone anti-A ([4]; Day 29, Alsevers): w+
- Agglutination, Diamed gel-cards, Albaclone anti-A ([4]; Day 29, Cellstab): 0
- Agglutination, Diamed gel-cards, Albaclone anti-A ([4]; Day 43, Alsevers): w+
- Agglutination, Diamed gel-cards, Albaclone anti-A ([4]; Day 43, Cellstab): 0
- Agglutination, Diamed gel-cards, Albaclone anti-A ([4]; Day 50, Alsevers): w+
- Agglutination, Diamed gel-cards, Albaclone anti-A ([4]; Day 50, Cellstab): 0
- Agglutination, Diamed gel-cards, Albaclone anti-A ([4]; Day 57, Cellstab): 0
- Agglutination, Diamed gel-cards, Bioclone anti-A ([4]; Day 57, Cellstab): w+
- Agglutination, Diamed gel-cards, Albaclone anti-A ([4]; Day 63, Cellstab): 0
- Agglutination, Diamed gel-cards, Bioclone anti-A ([4]; Day 63, Cellstab): 0
- Agglutination, Diamed gel-cards, Albaclone anti-A ([4]; Day 71, Cellstab): 0
- Agglutination, Diamed gel-cards, Bioclone anti-A ([4]; Day 71, Cellstab): 0
- Agglutination, Diamed gel-cards, Albaclone anti-A ([4]; Day 86, Cellstab): 0
- Agglutination, Diamed gel-cards, Bioclone anti-A ([4]; Day 86, Cellstab): 0
